Source: EP2608783B1, “USE OF GLYCYRRHETINIC ACID, GLYCYRRHIZIC ACID AND RELATED COMPOUNDS FOR PREVENTION AND/OR TREATMENT OF PULMONARY FIBROSIS” (Zhang, Lurong, priority 2010, dated 2012)

What was measured:
pulmonary fibrosis = assay: Inventors' observation on dexamethasone in pulmonary fibrosis; format: in vivo; conditions: compared to the non-treated controls
[1] = test system: ACTH (adrenocorticotropic hormone); conditions: in vivo
Protocol: The chemical structure of GA is similar to that of cortisol. Thus, this Example investigates whether the long-term use of GA would affect the production of cortisol and cause side effects. The plasma levels of ACTH (adrenocorticotropic hormone), a cortisol-releasing hormone, were measured using ELISA at Weeks 6, 7, and 10 after GA-treatments (40 mg/kg, qod, p.o).

growth hormone (GH) = assay: Plasma growth hormone by ELISA during long-term treatment
Protocol: In addition, plasma levels of growth hormone (GH) were measured using ELISA at Weeks 6, 7, and 10 after GA treatments.

IR-induced pneumonitis [2] = assay: Clinical case: GLA tablets in a lung cancer patient receiving 2nd IR treatment; format: in vivo; conditions: one patient
Protocol: In collaboration with radiation oncologists at the First Affiliated Hospital of Fujian Medical School in China, GLA tablets (produced by Minophagen Co. in Japan and available in pharmacies in China) were administered to a patient who received their 2nd IR treatment for lung cancer. […] To control the progression of pneumonitis, they received dexamethasone treatment. Due to tumor re-growth 9 months after their 1st IR treatment, they received a 2nd IR treatment with warnings that IR may worsen pneumonitis. In order to mitigate IR-induced lung injury, GLA was administered at a dose of 150 mg per day (equivalent to GA about 85 mg per day) starting from the date of 2nd IR treatment for 3 months. The result was unexpectedly surprising.

[3] = test system: inflammatory mediators (IMs), including IL1a, TNFa, PF4 and VCAM-1; assay: Inflammatory mediators in lung homogenates by ELISA, acute phase of IR-induced pneumonitis; format: in vivo, C57BL/6 fibrosis-prone mice; conditions: 2.5 days after thoracic IR at 15 Gy, compared to vehicle-treated mice, p<0.05
Protocol: Briefly, C57BL/6 fibrosis-prone mice received a single-dose of thoracic IR at 15 Gy with a dose rate of 1.9 Gy/min. Six hours after IR exposure, the mice were divided into the following treatment groups: 1) normal (received 0 Gy; no treatment); 2) vehicle-treated; 3) GA-treated (30-40 mg/kg/ q.o.d) (i.e. every other day) (the GA dosage used herein was derived from the effective dosage for humans (3-4 mg/kg), which is typically 6-10 times lower than that of mice); 4) dexamethasone-treated (Positive Control 1) (Dex, 3 mg/kg, i.m. or p.o. qod); 5) amifostine-treated (Positive Control 2) (Ami, 200 mg/kg/ i.v, 0.5 hr prior to irradiation); and 6) celebrex-treated (Positive Control 3) (30 mg/kg, po, qod).
The mice were sacrificed 2.5 days after IR exposure, and fresh lung tissue homogenates were prepared using lysis buffer mixed with protenase inhibitor cocktails. After protein concentration was adjusted to 1 mg/ml, the fresh lung homogenates were added to ELISA plates at a concentration of 100 µl/well. The levels of inflammatory mediators were measured by ELISA.

[4] = test system: IR-induced pulmonary fibrosis; assay: Lung density by cone beam CT scan (CBCT) in IR-induced pulmonary fibrosis; format: in vivo, mice; conditions: for abnormal increase in lung density: 7.5 months after IR exposure at 15 Gy (Figure 14), P<0.05
Protocol: To assess effects of GA on lung density, cone beam CT scan (CBCT) of mouse lungs was performed. CBCT provides a complete 3D 650×650×428 scan (i.e. 428 slices) of the lungs with isotropic resolution at 270 µm (central slice shown in Fig. 11) in 30 seconds. The scanner achieves a CT density sensitivity of ∼[…], and thus, changes in lung density can be discerned. The CBCT imaging data were further analyzed using MATLAB software. The lungs were automatically segmented (Fig. 12A) and a 3D image was generated for each mouse lung (Fig. 12B). To reduce the effect of cardiac motion on the mean value of lung density, boundaries of the lungs were not used for analysis. A histogram of voxel intensity (pulmonary tissue density) of each mouse was created (Fig. 13).

[5] = Long-term toxicity observation (activity, fur morphology, body weight); format: in vivo
From the text: No mouse died during GA treatment.

IR-induced fibrosis = assay: Lung histology (H&E stain, trichrome blue collagen stain) in IR-induced fibrosis; format: in vivo, mice; conditions: GA 40 mg/kg/q.o.d. for 3 months; 7 months after IR exposure at 15 Gy
Protocol: Briefly, mice treated with GA (40 mg/kg/q.o.d.) for 3 months were sacrificed 7 months after IR exposure at 15 Gy, and lung tissue specimens were stained using hematoxylin and eosin (H&E) stain. […] To assess whether GA reduces abnormal collagen deposition in lungs, lung tissue specimen was stained with collagen-binding trichrome blue dye.

[6] = test system: IL1a, TNFa, lymphotactin and p-selectin; assay: Inflammatory mediators, GA given 24 hours after IR exposure; format: in vivo, mice; conditions: GA administered 24 hours after IR exposure; thoracic IR at 5, 10 and 15 Gy
Protocol: The administration of GA 24 hours after IR exposure can effectively block the surge in inflammatory responses.

SP-D and IL1a = assay: Plasma levels of SP-D and IL1a, acute phase of IR-induced pneumonitis; format: in vivo, C57BL/6 fibrosis-prone mice; conditions: 2.5 days after thoracic IR at 15 Gy; P<0.05
Protocol: IR damages lung epithelium and endothelium cells, and causes dysfunction of tight junction, increased cellular permeability, and the loss of integrity of the alveolar-capillary barrier. As a result, SP-D and ILla abnormally enter into the blood from inflamed pulmonary tissue, leading to elevated plasma levels of SP-D and IL1a. In this Example, C57BL/6 fibrosis-prone mice received a single-dose of thoracic IR at 15 Gy with a dose rate of 1.9 Gy/min and were treated as described in Example 2. The mice were sacrificed 2.5 days after IR exposure, and plasma levels of SP-D and IL1a were measured.

[7] = test system: IR-induced pulmonary fibrosis; assay: Respiratory rate (rodent ventilator with pressure plethysmograph) in IR-induced pulmonary fibrosis; format: in vivo, mice; conditions: GA 30-40 mg/kg q.o.d. or twice/week for 3 months; 7 months after IR at 15 Gy, 5 months after IR at 18 Gy; P<0.05
Protocol: Mice exposed to thoracic IR develops pulmonary fibrosis 6 months after IR exposure at 18 Gy, 8 months after IR exposure at 15 Gy, and 10 months after IR exposure at 12.5 Gy. To access the treatment effects of GA on lung fibrosis and lung function, the respiratory rate, lung density, and lung compliance of the mice were determined. To assess improvement on respiratory function, mice exposed to thoracic IR at 15 Gy were treated with GA (30-40 mg/kg) q.o.d. or twice/week for 3 months. Mouse respiratory rate was measured using a Harvard rodent ventilator connected to a pressure plethysmograph.

[8] = test system: IR-induced pulmonary fibrosis; assay: Lung compliance (plethysmograph pressure-volume measurements); format: in vivo, mice; conditions: 6.5 months after IR exposure at 15 Gy; P<0.05
Protocol: To assess the effects of GA on lung compliance, mice were anesthetized and their trachea were surgically exposed and incised. An 18-gauge, 1 cm stainless steel tube was inserted into the trachea and secured with surgical sutures. The respiratory rate and tidal volume of the mice were measured by a Harvard rodent ventilator. The average respiratory rate was 150 breaths per minute and the tidal volume was adjusted according to the weight (0.01 ml per gram body weight). The mice were then placed in a plethysmograph for pressure-volume measurements.

IR-induced pneumonitis [9] = assay: Lung morphology: plasma exudation and inflammatory cell infiltration, acute phase of IR-induced pneumonitis; format: in vivo, C57BL/6 fibrosis-prone mice; conditions: 2.5 days after thoracic IR at 15 Gy
Protocol: Briefly, C57BL/6 fibrosis-prone mice received a single-dose of thoracic IR at 15 Gy with a dose rate of 1.9 Gy/min and were treated as described in Example 2. The mice were sacrificed 2.5 days after IR exposure, and lung tissues were harvested and analyzed for morphological changes.

hydroxyproline; TGFβ = assay: Hydroxyproline and TGFβ levels in lungs; format: in vivo, mice
From the text: The reduction of collagen deposition was further analyzed by measuring the levels of hydroxyproline, a key component of collagen.

IR-induced pneumonitis [10] = assay: Sub-acute phase of IR-induced pneumonitis: lung tissue and bronchoalveolar lavage fluid (BALF) assays; format: in vivo, C57BL/6 fibrosis-prone mice
Protocol: Briefly, C57BL/6 fibrosis-prone mice received a thoracic IR and were treated as described in Example 2. The mice were sacrificed 17 days after IR exposure, and lung tissues were harvested. Bronchoalveolar lavage fluid (BALF) assays were performed.

[11] = 17 days after IR exposure at 15 Gy, P<0.05
[12] = 17 days after IR exposure, P<0.05

SMILES: C[C@@H]1C[C@H]2[C@@H]3CCC4=CC(=O)C=C[C@]4(C)[C@@]3(F)[C@@H](O)C[C@]2(C)[C@@]1(O)C(=O)CO [dexamethasone]
- effect on pulmonary fibrosis (pulmonary fibrosis): worsening of pulmonary fibrosis
- reduction in ACTH levels [1]: 10-50 fold
- plasma GH level (growth hormone (GH); measured at Weeks 6, 7, and 10): increased

SMILES: CC1(C)[C@@H](O[C@H]2O[C@H](C(=O)O)[C@@H](O)[C@H](O)[C@H]2O[C@@H]2O[C@H](C(=O)O)[C@@H](O)[C@H](O)[C@H]2O)CC[C@]2(C)[C@H]3C(=O)C=C4[C@@H]5C[C@@](C)(C(=O)O)CC[C@]5(C)CC[C@@]4(C)[C@]3(C)CC[C@@H]12 [GLA, glycyrrhizic acid]
- symptoms of pneumonitis or fibrosis (IR-induced pneumonitis [2]; 150 mg per day for 3 months from date of 2nd IR treatment): did not exhibit any symptom of pneumonitis or fibrosis
- lung density (CT) (IR-induced pneumonitis [2]; CT results of 1st versus 2nd IR treatment (Figure 20)): significantly reduced

SMILES: Cc1ccc(-c2cc(C(F)(F)F)nn2-c2ccc(S(N)(=O)=O)cc2)cc1 [celebrex, reference compound]
- levels of inflammatory mediators (IMs), including IL1a, TNFa, PF4 and VCAM-1 [3]: extent of inhibition by GA was comparable
- abnormal increase in lung density [4]: reduction in lung density by GA is more potent
- loss of body weight (BW) ([5]; 7.5 months post IR exposure at 15 Gy, vehicle-treated mice lost 6-7 grams): less severe loss of BW

SMILES: CC1(C)[C@@H](O)CC[C@]2(C)[C@H]3C(=O)C=C4[C@@H]5C[C@@](C)(C(=O)O)CC[C@]5(C)CC[C@@]4(C)[C@]3(C)CC[C@@H]12 [GA, glycyrrhetinic acid]
- levels of inflammatory mediators (IMs), including IL1a, TNFa, PF4 and VCAM-1 [3]: effectively reduced
- collagen deposition caused by IR exposure (trichrome blue dye) (IR-induced fibrosis): reduces
- lung morphology (H&E stain) (IR-induced fibrosis): near-normal morphology
- levels of key inflammatory mediators including IL1a, TNFa, lymphotactin and p-selectin [6]: potently reduced
- plasma levels of IL1a (SP-D and IL1a): effectively reduced
- plasma levels of SP-D (SP-D and IL1a): effectively reduced
- respiratory rate [7]: effectively reduced
- abnormal increase in lung density [4]: significantly reduced
- Mean Density (HU) ([4]; lung density, 1 year post IR exposure at 18 Gy): -458 HU
- death during treatment ([5]; long-term use): No mouse died
- side effects of long-term use ([5]; mouse, in vivo): little side effects
- lung compliance [8]: potently, and mostly effectively, enhanced
- plasma exudation and inflammatory cell infiltration into the interstitial space (IR-induced pneumonitis [9]): potently suppressed
- hydroxyproline levels in the lungs (hydroxyproline; TGFβ; compared to IR + vehicle control, P<0.05): reduced
- level of TGFβ (hydroxyproline; TGFβ; pro-fibrotic factor, Figure 18B): reduced
- infiltration of neutrophils into the interstitial fluid (IR-induced pneumonitis [10]; 17 days after IR exposure at 15 Gy): suppression
- level of neutrophils infiltrated into the bronchoalveolar lavage fluid (IR-induced pneumonitis [10]; [11]): reduced
- myeloperoxidase (MPO) activity in (BALF) (IR-induced pneumonitis [10]; [11]): reduced
- level of lymphotactin (IR-induced pneumonitis [10]; [12]): reduced
- level of p-selectin (IR-induced pneumonitis [10]; [12]): reduced
- plasma GH level (growth hormone (GH); in vivo): increased

SMILES: NCCCNCCSP(=O)(O)O [amifostine]
- levels of inflammatory mediators (IMs), including IL1a, TNFa, PF4 and VCAM-1 [3]: extent of inhibition by GA was comparable
